Values quoted from earlier work in patent publication US6939965B2, “Process of manufacture of 1,3-oxathiolane nucleosides using titanium trichloride mono-isopropoxide” (Gilead Sciences, Inc., priority 1998, dated 2005).

Experiments:
HIV [1] = settings: racemic mixture, compared with AZT
HIV [2] = system: HIV

In the case of `Nc1ccn(C2CSC(CO)O2)c(=O)n1` (racemic) [BCH-189, 2-hydroxymethyl-5-(cytosin-1-yl)-1,3-oxathiolane], the “activity against HIV relative to AZT” value (HIV [1]) is listed as “approximately the sane activity against HIV as AZT”.
For `Nc1nc(=O)n([C@@H]2CS[C@H](CO)O2)cc1F` (relative stereo) [FTC, cis-2-hydroxymethyl-5-(5-fluorocytosin-1-yl)-1,3-oxathiolane], the HIV activity (HIV [2]) is listed as “potent HIV activity”.
